Test results from PubChem BioAssay AID179 (DTP/NCI, 2004).
Where “and” joins values, the source holds several entries; their conditions need not be identical. Identical values can stand only once. Calls of active or inactive are those of the source.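 The calls were made as follows: active = compounds giving half or more protection of infected cells from virus-caused growth loss, again on retest; inactive = the rest.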

Tested on: CEM cells HIV-1 protection, formazan growth assay
Assay: NCI AIDS Antiviral Assay
Conditions: for IC50: measured here: growth of uninfected CEM cells
In short: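 Human CEM cells, uninfected and HIV-1-infected, exposed to five drug concentrations; growth measured by soluble formazan assay and scored as percent protection from infection, with protecting compounds retested.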

Structure (SMILES)	EC50	IC50	outcome
Cc1ccc(/C=N/Nc2cc(C)c3ccccc3n2)s1	> 200 µM	10.7 µM	
O=c1c(-c2ccc(O)c(O)c2)coc2cc(O)c(O)cc12	> 200 µM	24.5 µM	
O=C1O[C@H]2C3C4CCC(C4[C@@H]2I)[C@H]13 (stereo partly drawn)	> 200 µM	> 200 µM	
Nc1nnn(N)n1	> 200 µM	> 200 µM	
CC1CC[N+]2(C)CCCC12 (stereo not drawn)	> 1120 µM	> 1120 µM	
CC(C)CC(NC(=O)C(CI)Cc1ccccc1)C(=O)Nc1ccccc1 (stereo not drawn)	> 100 µM	> 100 µM	
NC(CSS(=O)(=O)O)=NCCc1c[nH]c(=S)[nH]1	> 200 µM	34.7 µM	
COC(=O)/C(C#N)=C(\Nc1ccccc1)N1CCCCC1	> 200 µM	97.7 µM	
O=C(CCBr)N1CCN(C(=O)CCBr)CC1	> 708 µM	9.33 µM	
O=C(CCNC12CC3CC(CC(C3)C1)C2)c1ccccc1			inactive
Cc1nc2ccccc2nc1CC(=N)c1ccccc1	> 200 µM	61.7 µM	
CN(C)c1ccc(C=C2C(=O)N(c3ccccc3)N(c3ccccc3)C2=O)cc1	> 100 µM	69.2 µM	
OCc1ccc2ccc3ccc(CO)nc3c2n1	> 389 µM	263 µM	
Cc1cccc2c1CC(C1OC(=O)c3ccccc31)C2=O (stereo not drawn)	> 100 µM	> 100 µM	
Cc1sc(Nc2ccccc2[N+](=O)[O-])c(C#N)c1C	15.5 µM	> 200 µM	
COc1ccc(C2C(C#N)=C(S)N(C3OC(COC(C)=O)C(OC(C)=O)C(OC(C)=O)C3OC(C)=O)C(C)=C2C(C)=O)cc1 (stereo not drawn)	> 200 µM	53.7 µM	
O=C(C/C(=N/O)C(F)(F)F)c1cccs1	> 200 µM	> 200 µM	
O=C(O/N=C1/CCC/C1=C\c1ccccc1)c1ccccc1			inactive
CO[C@H]1/C=C/O[C@@]2(C)Oc3c(C)c(O)c4c(O)c(c(/C=N/N5CCCN(Cc6ccccc6)CC5)c(O)c4c3C2=O)NC(=O)/C(C)=C\C=C\[C@H](C)[C@H](O)C(C)[C@@H](O)C(C)[C@H](OC(C)=O)[C@@H]1C (stereo partly drawn)	> 200 µM	8.32 µM	
CCOP(=O)(OCC)C(C(=O)OC)C(=O)C(=O)Nc1ccc(Cl)cc1Cl (stereo not drawn)	> 61.7 µM	> 61.7 µM	
Cc1cc(=S)c2cc3c(cc2[nH]1)OCO3	> 200 µM	79.4 µM	
CN(C)CCCNC(=O)c1c(O)c2ccccc2[nH]c1=O	> 200 µM	> 200 µM	

Structure (SMILES)	EC50	IC50	outcome
O=Nc1c(O)cc(Nc2cccnc2)c2ccccc12	102 µM	182 µM	
O=C(NO)C12C3C4C1C1C2C3C41C(=O)NO (stereo not drawn)	> 1120 µM	631 µM	
Oc1ccc(C2Oc3cc(O)c4cc3C2c2c3c(cc5c2[C@@H](c2cc(O)cc(O)c2)C(c2ccc(O)cc2)O5)O[C@@H](c2ccc(O)cc2)C3c2cc(O)cc3c2C4[C@H](c2ccc(O)cc2)O3)cc1 (stereo partly drawn)	> 15.8 µM	> 15.8 µM	
CN(C)CCNc1ccc(CO)c2oc3ccc(O)cc3c(=O)c12	> 398 µM	1.15 µM	
C=C(C)P(=O)(OC(C)CCl)OC(C)CCl (stereo not drawn)	> 200 µM	> 200 µM	
Cc1cn(C2CC(O)C(CNC(=O)N(O)C3CC(n4cc(C)c(=O)[nH]c4=O)OC3CO)O2)c(=O)[nH]c1=O (stereo not drawn)	> 200 µM	> 200 µM	
Cc1oc2nc(N(C)C)n3nnnc3c2c1C			inactive
COC12OC3(C4OC41)C(C(=O)O[C@H]3CO)C2S(=O)(=O)c1ccccc1 (stereo partly drawn)	> 200 µM	> 200 µM	
CSC(=S)NNC(=O)c1ccncc1	> 12 µM	> 12 µM	
CC/C(Cl)=N\OC(=O)Nc1ccc(OC)cc1	> 20 µM	6.76 µM	
COc1ccc(/C=C2\SC(=S)N(/C=C3\C(=O)N(c4ccccc4)N=C3C)C2=O)cc1OC	> 200 µM	28.2 µM	
N#Cc1cc([N+](=O)[O-])ccc1NC(=O)/C(=N/N)C(C(=O)c1ccc(Cl)c(Cl)c1)C1OC(=O)c2ccccc21 (stereo not drawn)	> 64.6 µM	> 64.6 µM	
O=C(Nc1c(-c2nc3ccccc3[nH]2)sc(=S)n1-c1ccccc1)c1ccccc1	> 3.39 µM	> 3.39 µM	
O=[N+]([O-])c1ccc(C2N3CCCCC3[C@@H]3c4[nH]c5ccccc5c4CCN23)cc1 (stereo partly drawn)	> 34.7 µM	> 34.7 µM	
Cc1c(C)c2c(c(N)c1C#N)C(=O)N(Cc1ccc(S(N)(=O)=O)cc1)C2=O	69.2 µM	> 200 µM	
COc1ccc(-c2c3c([nH]c(=S)c2C#N)CC(C)(C)CC3=O)cc1			inactive
CC1CCC2[C@@H](C)COC3O[C@]4(C)CCC1C32OO4 (stereo partly drawn)	> 339 µM	302 µM	
Cc1cc2nnn(C3CCCCO3)c2cc1C (stereo not drawn)	> 200 µM	174 µM	
CCC(=O)C(CCN1CCC(n2c(=O)[nH]c3ccccc32)CC1)(c1ccccc1)c1ccccc1	> 200 µM	19.1 µM	
c1ccc(N=C(N2CCCCC2)N(CCN2CCCCC2)c2ccccc2)cc1	> 200 µM	1.82 µM	
CN(C)C(=S)SSC(=S)N(C)C	> 200 µM	5.01 µM and 1.07 µM	inactive
COc1ccc2c(c1)CSCC2=O	> 513 µM	> 200 µM	

Structure (SMILES)	EC50	IC50	outcome
CC(=O)[CH-]C(C)=O.CC(=O)[CH-]C(C)=O.CCCNCCN.[Cr+5].[O-][Cl+3]([O-])([O-])[O-]	> 200 µM	> 200 µM	
C/C(=N/N(C=O)C[n+]1ccccc1)C(CN(CC(C)C)CC(C)C)C(=O)Nc1ccc(C)cc1C (stereo not drawn)	> 69.2 µM	> 69.2 µM	
O=C(Nc1ccc(Cl)cc1Cl)C(=O)Nn1c(=S)[nH]c2ccccc2c1=O			inactive
CC(O)(c1ccccc1)c1nccc2ccccc12 (stereo not drawn)	> 200 µM	77.6 µM	
CN(C)c1nc(=Nc2ccc3c(c2)OCO3)ss1			inactive
CCCCCCc1ccc(C(=O)NO)cc1	> 200 µM	91.2 µM	
CCN(CC)C1Oc2cc3c(cc2C(c2cc(OC)c(O)c(OC)c2)C1C)OCO3 (stereo not drawn)	> 200 µM	1.29 µM	
c1ccc2sc(SSc3nc4ccccc4s3)nc2c1	> 200 µM	> 200 µM	
N#CCCN(CCC#N)c1ccc(/C=C2\N=C(CN3C(=O)c4ccccc4C3=O)OC2=O)cc1	> 79.4 µM	> 79.4 µM	
Cc1cn(CC2=NCCN2)c(=O)[nH]c1=O	> 200 µM	> 200 µM	
CCC1(C)C=Cc2c(cc(OC)c3c(=O)c4ccccc4n(C)c23)O1 (stereo not drawn)	> 200 µM	24.5 µM	
COC(=O)C1=C(CS(=O)c2ccc([N+](=O)[O-])cc2[N+](=O)[O-])ON(C)C1c1ccccc1 (stereo not drawn)			inactive
C/C(=N\O)[C@H]1CC[C@H]2[C@@H]3CC[C@@H]4C/C(=N/O)CC[C@]4(C)[C@H]3[C@@](C)(O)C[C@]12C	> 200 µM	26.9 µM	
O=S(=O)(NC1CCCCC1)c1ccc2c(c1)OCCOCCOCCOCCO2	> 200 µM	> 200 µM	
CCC(=O)OC1CC2=CC(=O)CCC2(C)C2CCC3(C)C(OC(=O)CC)CCC3C12 (stereo not drawn)	> 200 µM	> 200 µM	
CCN(CC)CCOC(NC(C)=O)(c1ccccc1)c1ccccc1	> 200 µM	> 200 µM	
CN(C)c1ccc(-c2[nH]c(=O)c3ccccc3[n+]2C)cc1	> 200 µM	66.1 µM	
CCOC(=O)/C=C/c1ccc(OC)cc1	> 34.7 µM	> 34.7 µM	
CC(=O)OC1OC2C(NC(=O)OC(C)(C)C)C1CC2(OCc1ccccc1)OCc1ccccc1 (stereo not drawn)	> 28.2 µM	> 28.2 µM	
CCc1c(O)cc(=O)oc1-c1ccc(OC)c(OC)c1	> 200 µM	> 200 µM	
CCC(CCCN)Nc1cc(OC)cc2cccnc12 (stereo not drawn)	> 200 µM	6.31 µM	
COc1cc(C)c2c(c1C)OC(=O)c1c(C)c(Cl)c(O)c(C=O)c1O2	> 49 µM	> 49 µM	

Structure (SMILES)	EC50	IC50	outcome
COc1c(OC)c(OC)c(-c2cc(=O)c3c(OC)c(OC)c(OC)c(OC)c3o2)c(OC)c1OC	> 200 µM	56.2 µM	
CCOP(=O)(OCC)C(C(=O)OC)C(=O)C(=O)Nc1c(C)cc(Br)cc1C (stereo not drawn)	> 537 µM	> 537 µM	
Cn1c(O)c(N=Nc2ccccc2[N+](=O)[O-])c2ccccc21	> 200 µM	> 200 µM	
Cn1cnc(N)c1S(=O)(=O)Nc1ccccc1Cl	> 562 µM	> 562 µM	
COC1=NC(NC2OCC(O)C(O)C2O)=C(NC(C)=O)CN1C (stereo not drawn)	> 200 µM	> 200 µM	
Cc1ccccc1Nc1cn(CCOc2ccccc2)c(=O)n(CCOc2ccccc2)c1=O	> 200 µM	> 200 µM	
NCC1OC(OC2C(CO)OC(OC3C(O)C(N)CC(N)C3OC3OC(CO)C(O)CC3N)C2O)C(N)C(O)C1OC1OC(CO)C(O)C(O)C1O (stereo not drawn)			inactive
CO/C(=N\N=C\c1ccc(C(F)(F)F)cc1)c1ccncc1	> 117 µM	69.2 µM	
CC1(C)OC2C(CF)OC(n3cc(Br)c(=O)[nH]c3=O)C2O1 (stereo not drawn)	> 200 µM	> 200 µM	
O=C(CN1C(=O)CC(c2ccccc2)(c2ccccc2)C1=O)N1CCN(CCO)CC1	> 200 µM	151 µM	
CC1(C)OCC2OC3(c4nc(C#N)c(N)o4)OC(C)(C)OC3C2O1 (stereo not drawn)	> 50.1 µM	> 50.1 µM	
CCN(CC)CCNc1c(OC)c(OC)cc2nccnc12	> 200 µM	64.6 µM	
CCN(CC)C(=O)C/C(C)=N/NC(=O)c1ccncc1	> 93.3 µM	> 93.3 µM	
CN(C)Cc1cc(N=Nc2ccccc2)ccc1O	> 200 µM	102 µM	
S=C1NCCNC(=S)SSC(=S)SS1	> 2.34 µM	> 2.34 µM	
CC1CC/C(=C\c2ccc(N(C)C)cc2)C2=C1C(c1ccc(N(C)C)cc1)NC(=S)N2 (stereo not drawn)	> 100 µM	> 100 µM	
O=C(Nc1ccccc1)c1cc2ccccc2oc1=O	> 100 µM	> 100 µM	
CCOC(=O)CNC(=O)c1ccccc1SC(=O)CCCC[n+]1ccccc1	> 20 µM	0.363 µM	
COc1cc(Nc2nc(NS(=O)(=O)c3cc(C)c(Cl)cc3S)n[nH]2)cc(OC)c1OC	112 µM	794 µM	
O=c1c2ccccc2nc2[nH][nH]c(=S)n12	> 200 µM	195 µM	
N#CC1C(=O)C(=O)N(c2ccccc2)C1=O (stereo not drawn)	> 33.9 µM	> 33.9 µM	
COC(=O)c1c(C(=O)OC)c(C(=O)OC)c2c([nH]c3ccccc32)c1C(=O)OC			inactive
